Test results from ChEMBL document CHEMBL1914370, “A Pd-mediated new strategy to functionalized 2-aminochromenes: their in vitro evaluation as potential anti tuberculosis agents” (Bioorg Med Chem Lett, 2011).
pIC50: −log10 of the molar value.

Key:
[1] = system: Mycobacterium tuberculosis H37Rv; assay: Inhibition of Mycobacterium tuberculosis H37Rv chorismate mutase expressed in Escherichia coli BL21 (DE3) assessed as conversion of chorismate to prephenate at 50 uM after 5 mins by spectrophotometry
[2] = (§1) Inhibition of Mycobacterium tuberculosis H37Rv chorismate mutase expressed in Escherichia coli BL21 (DE3) assessed as conversion of chorismate to prephenate after 5 mins by spectrophotometry
[3] = system: Mycobacterium tuberculosis H37Rv; assay: as §1

Row | Compound | inhibition [1] [%] | pIC50 [2] | inhibition [3]
1 | CCCCC#Cc1ccccc1C1C(C#N)=C(N)Oc2c1ccc1ccccc21 (centres undefined) | 57 | – | –
2 | N#CC1=C(N)Oc2c(ccc3ccccc23)C1c1cccc(C#CC2(O)CCCCC2)c1 (centres undefined) | 28 | – | –
3 | CCCCCCCCC#Cc1ccccc1C1C(C#N)=C(N)Oc2c1ccc1ccccc21 (centres undefined) | 50 | – | –
4 | CC(C)(C)OC(=O)/C=C/c1cccc(C2C(C#N)=C(N)Oc3ccc4ccccc4c32)c1 (centres undefined) | 64 | – | –
5 | N#CC1=C(N)Oc2c(ccc3ccccc23)C1c1cccc(C#CCCCO)c1 (centres undefined) | 32 | – | –
6 | N#CC1=C(N)Oc2ccc3ccccc3c2C1c1cccc(C#CCCO)c1 (centres undefined) | 69 | – | –
7 | N#CC1=C(N)Oc2c(ccc3ccccc23)C1c1ccccc1C#CC1(O)CCCCC1 (centres undefined) | 24 | – | –
8 | COC(=O)/C=C/c1cccc(C2C(C#N)=C(N)Oc3ccc4ccccc4c32)c1 (centres undefined) | 33 | – | –
9 | N#CC1=C(N)Oc2ccc3ccccc3c2C1c1cccc(C#CCCCO)c1 (centres undefined) | 70 | 4.81 | Dose-dependent effect
10 | CCCCCCC#Cc1ccccc1C1C(C#N)=C(N)Oc2c1ccc1ccccc21 (centres undefined) | 55 | – | –
11 | CC(=O)/C=C/c1cccc(C2C(C#N)=C(N)Oc3ccc4ccccc4c32)c1 (centres undefined) | 10 | – | –
12 | CCOC(=O)/C=C/c1cccc(C2C(C#N)=C(N)Oc3ccc4ccccc4c32)c1 (centres undefined) | 30 | – | –
